The record followed here is ChEMBL document CHEMBL1121788, “Structure-activity studies on narcotic antagonists. 2. N-substituted ethyl 3-(m- or p-hydroxyphenyl) nipecotates” (1981).

Assay type in all cases: functional
For assay [1], the species on record is Mus musculus. In words: Compound was tested for antagonist activity against morphine sulfate by the mouse tail-flick method.
The species named for assay [2] is Mus musculus. The experiment in a line: Analgesic activity in mice by the acetic acid writhing assay. On the technique in general: In writhing tests, fewer writhes than in controls are read as antinociception.
The species named for assay [3] is Mus musculus. The experiment in a line: Analgesic activity in mice by the tail-flick method. For orientation: Thermal pain tests record how soon the animal reacts.
The species named for assay [4] is Mus musculus. In words: Analgesic activity in mice by the tail-flick method, activity expressed as ED50.

A word on the ED50: it is the dose that gives a 50% effect, or the effect in half of the subjects. Read a high ED50 as weaker potency.

Consider `Br.CCOC(=O)C1(c2cccc(O)c2)CCCN(CC2CC2)C1` (configuration not stated), for which, in the assay listed under Mus musculus [1], the AD50 stood at 18.8 µM/kg. Also, the ED50 in the assay filed under Mus musculus [2] worked out at 4 µmol/kg; in the assay listed under Mus musculus [3], 68 µmol/kg.
In turn, `CCCN1CCCC(C(=O)OCC)(c2ccc(O)cc2)C1.Cl` (configuration not stated) gave an AD50 in the assay filed under Mus musculus [1] of 140 µM/kg. For the same compound, the ED50 in the assay filed under Mus musculus [2] is 62.5 µmol/kg; in the assay filed under Mus musculus [3], over 305 µmol/kg.
On the same counts, the results for `CCOC(=O)C1(c2ccc(O)cc2)CCCN(CC2CC2)C1.Cl` (configuration not stated) are over 294 µM/kg, 4.65 µmol/kg and 100 µmol/kg.
Regarding `Br.CCOC(=O)C1(c2cccc(O)c2)CCCN(C)C1` (configuration not stated), the AD50 in the assay filed under Mus musculus [1] stood at 24.4 µM/kg. Also, the ED50 is 5.66 µmol/kg in the assay filed under Mus musculus [2] and over 290 µmol/kg in the assay filed under Mus musculus [4].
`Br.CCOC(=O)C1(c2ccc(O)cc2)CCCN(C)C1` (configuration not stated): in the assay filed under Mus musculus [1], the AD50 was over 290 µM/kg. The ED50 in the assay listed under Mus musculus [2] was 22.9 µmol/kg; in the assay listed under Mus musculus [3], over 290 µmol/kg.
`C=CCN1CCCC(C(=O)OCC)(c2ccc(O)cc2)C1.Cl` (configuration not stated) displayed an AD50 in the assay listed under Mus musculus [1] of over 307 µM/kg. Further, the ED50 in the assay listed under Mus musculus [2] was 10.4 µmol/kg; in the assay filed under Mus musculus [3] it was over 307 µmol/kg.
The like results for `C=CCN1CCCC(C(=O)OCC)(c2cccc(O)c2)C1.O=P(O)(O)O` (configuration not stated) were, in that order, over 92 µM/kg, 7.22 µmol/kg and over 229 µmol/kg.
`CCCN1CCCC(C(=O)OCC)(c2cccc(O)c2)C1.O=P(O)(O)O` (configuration not stated) came in with an AD50 in the assay filed under Mus musculus [1] of 59.3 µM/kg. Besides, the ED50 in the assay listed under Mus musculus [2] is 5.59 µmol/kg; in the assay filed under Mus musculus [3], over 91 µmol/kg.
Consider `CN1CC[C@]23c4c5ccc(O)c4O[C@H]2[C@@H](O)C=C[C@H]3[C@H]1C5` [MORPHINE], for which the ED50 in the assay listed under Mus musculus [2] was found to be 0.72 µmol/kg; in the assay listed under Mus musculus [3] it was 4.9 µmol/kg.
As to `C=CCN1CC[C@]23c4c5ccc(O)c4O[C@H]2C(=O)CC[C@@]3(O)[C@H]1C5` [NALOXONE], it took a dose of 0.08 µmol/kg to reach the 50% effect level in the assay filed under Mus musculus [3] (ED50).
